Assay results as given in paper PMC5218480 (PLoS ONE, 2017).

Test system: MV-4-11 cells
Assay: Gene expression microarray analysis (Affymetrix PrimeView) and GSEA
Type: cell-based, human
Parameters: RFU PODN (11730768_x_at) / Fold change /veh PODN (11730768_x_at) / RFU LINC00158 (11744669_a_at) / Fold change /veh LINC00158 (11744669_a_at) / RFU DUSP10 (11751237_a_at) / Fold change /veh DUSP10 (11751237_a_at) / RFU ID3 (11757404_x_at) / Fold change /veh ID3 (11757404_x_at) / RFU PLEKHG5 (11737974_s_at) / Fold change /veh PLEKHG5 (11737974_s_at) / RFU LRRC4B (11730491_at) / Fold change /veh LRRC4B (11730491_at) / RFU GIMAP4 (11747438_a_at) / Fold change /veh GIMAP4 (11747438_a_at) / RFU KRT8 (11758183_x_at) / Fold change /veh KRT8 (11758183_x_at) / RFU CNN1 (11734310_a_at) / Fold change /veh CNN1 (11734310_a_at) / RFU VPS37D (11726825_at) / Fold change /veh VPS37D (11726825_at) / RFU C10orf10 (11716522_x_at) / Fold change /veh C10orf10 (11716522_x_at) / RFU KIR2DL2 /// KIR2DL4 /// KIR2DL5A /// KIR2DL5B /// KIR2DS1 /// KIR2DS2 /// KIR2DS3 /// KIR2DS4 /// KIR3DL3 /// KIR3DL3 /// KIR3DS1 (11738374_at) / Fold change /veh KIR2DL2 /// KIR2DL4 /// KIR2DL5A /// KIR2DL5B /// KIR2DS1 /// KIR2DS2 /// KIR2DS3 /// KIR2DS4 /// KIR3DL3 /// KIR3DL3 /// KIR3DS1 (11738374_at) / RFU C1QL1 (11718748_at) / Fold change /veh C1QL1 (11718748_at) / RFU TMPRSS4 (11747572_a_at) / Fold change /veh TMPRSS4 (11747572_a_at) / RFU HAMP (11756126_x_at) / Fold change /veh HAMP (11756126_x_at) / RFU RNFT2 (11725882_a_at) / Fold change /veh RNFT2 (11725882_a_at) / RFU NR4A2 (11747474_a_at) / Fold change /veh NR4A2 (11747474_a_at) / RFU ABCC12 (11746883_a_at) / Fold change /veh ABCC12 (11746883_a_at) / RFU TMEM136 (11760407_x_at) / Fold change /veh TMEM136 (11760407_x_at) / RFU CLDN22 /// WWC2 (11732394_at) / Fold change /veh CLDN22 /// WWC2 (11732394_at) / RFU HLA-DPB1 (11760878_x_at) / Fold change /veh HLA-DPB1 (11760878_x_at) / RFU SPINT1 (11716480_a_at) / Fold change /veh SPINT1 (11716480_a_at) / RFU GAP43 (11754022_s_at) / Fold change /veh GAP43 (11754022_s_at) / RFU A4GNT (11735810_at) / Fold change /veh A4GNT (11735810_at) / RFU PRB3 (11715151_x_at) / Fold change /veh PRB3 (11715151_x_at) / RFU TUBB4B (11761932_at) / Fold change /veh TUBB4B (11761932_at) / RFU CAPN14 (11732068_a_at) / Fold change /veh CAPN14 (11732068_a_at) / RFU TMCC2 (11721928_a_at) / Fold change /veh TMCC2 (11721928_a_at) / RFU IRGQ (11745062_a_at) / Fold change /veh IRGQ (11745062_a_at) / RFU FAM174B (11720279_a_at) / Fold change /veh FAM174B (11720279_a_at) / RFU TMPRSS4 (11748680_a_at) / Fold change /veh TMPRSS4 (11748680_a_at) / RFU FAM212B (11763350_a_at) / Fold change /veh FAM212B (11763350_a_at) / RFU PLEKHG5 (11743358_a_at) / Fold change /veh PLEKHG5 (11743358_a_at) / RFU ZSCAN30 (11745921_a_at) / Fold change /veh ZSCAN30 (11745921_a_at) / RFU CMKLR1 (11741424_a_at) / Fold change /veh CMKLR1 (11741424_a_at) / RFU LOC101060620 /// MAPK8IP1 (11723275_at) / Fold change /veh LOC101060620 /// MAPK8IP1 (11723275_at) / RFU SPTSSB (11747773_x_at) / Fold change /veh SPTSSB (11747773_x_at) / RFU PRSS12 (11739890_at) / Fold change /veh PRSS12 (11739890_at) / RFU BIN1 (11741810_x_at) / Fold change /veh BIN1 (11741810_x_at) / RFU WNT11 (11732464_a_at) / Fold change /veh WNT11 (11732464_a_at) / RFU C10orf10 (11716521_a_at) / Fold change /veh C10orf10 (11716521_a_at) / RFU C5orf56 (11738089_at) / Fold change /veh C5orf56 (11738089_at) / RFU CYB561 (11721691_x_at) / Fold change /veh CYB561 (11721691_x_at) / RFU ANKRD19P (11752326_a_at) / Fold change /veh ANKRD19P (11752326_a_at) / RFU OR2T12 /// OR2T33 /// OR2T8 (11738714_s_at) / Fold change /veh OR2T12 /// OR2T33 /// OR2T8 (11738714_s_at) / RFU VCAN (11748164_a_at) / Fold change /veh VCAN (11748164_a_at) / RFU JSRP1 (11732532_at) / Fold change /veh JSRP1 (11732532_at) / RFU KRTAP10-11 (11738290_x_at) / Fold change /veh KRTAP10-11 (11738290_x_at) / RFU MYO3A (11730013_a_at) / Fold change /veh MYO3A (11730013_a_at) / RFU EBF3 (11725865_a_at) / Fold change /veh EBF3 (11725865_a_at) / RFU CAMK2N1 (11719241_x_at) / Fold change /veh CAMK2N1 (11719241_x_at) / RFU C5orf56 (11738088_a_at) / Fold change /veh C5orf56 (11738088_a_at) / RFU OLFML3 (11715873_a_at) / Fold change /veh OLFML3 (11715873_a_at) / RFU LOC100653217 /// NTM (11731650_a_at) / Fold change /veh LOC100653217 /// NTM (11731650_a_at) / RFU MAPK11 (11762145_a_at) / Fold change /veh MAPK11 (11762145_a_at) / RFU FIZ1 (11724087_x_at) / Fold change /veh FIZ1 (11724087_x_at) / RFU OASL (11726364_x_at) / Fold change /veh OASL (11726364_x_at) / RFU SOX15 (11748057_x_at) / Fold change /veh SOX15 (11748057_x_at) / RFU CD79A (11719716_a_at) / Fold change /veh CD79A (11719716_a_at) / RFU HIST1H1D (11736915_at) / Fold change /veh HIST1H1D (11736915_at) / RFU CASKIN2 (11723855_a_at) / Fold change /veh CASKIN2 (11723855_a_at) / RFU LOC730098 (11760151_x_at) / Fold change /veh LOC730098 (11760151_x_at) / RFU OR4N2 (11742367_at) / Fold change /veh OR4N2 (11742367_at) / RFU PRRT2 (11749266_a_at) / Fold change /veh PRRT2 (11749266_a_at) / RFU SNX32 (11753110_a_at) / Fold change /veh SNX32 (11753110_a_at) / RFU CDHR5 (11726645_a_at) / Fold change /veh CDHR5 (11726645_a_at) / RFU RCAN1 (11760418_a_at) / Fold change /veh RCAN1 (11760418_a_at) / RFU FAM167A (11723789_a_at) / Fold change /veh FAM167A (11723789_a_at) / RFU FAM26E (11764081_at) / Fold change /veh FAM26E (11764081_at) / RFU ISYNA1 (11749810_s_at) / Fold change /veh ISYNA1 (11749810_s_at) / RFU ACY1 (11761880_at) / Fold change /veh ACY1 (11761880_at) / RFU 11764098_at / Fold change /veh 11764098_at / RFU SAMD14 (11745864_x_at) / Fold change /veh SAMD14 (11745864_x_at) / RFU NPB (11741838_a_at) / Fold change /veh NPB (11741838_a_at) / RFU TMPRSS6 (11731388_a_at) / Fold change /veh TMPRSS6 (11731388_a_at) / RFU KRTAP10-2 (11738614_at) / Fold change /veh KRTAP10-2 (11738614_at) / RFU ARHGAP8 /// PRR5-ARHGAP8 (11727945_x_at) / Fold change /veh ARHGAP8 /// PRR5-ARHGAP8 (11727945_x_at) / RFU KRTAP5-7 /// NADSYN1 (11734609_at) / Fold change /veh KRTAP5-7 /// NADSYN1 (11734609_at) / RFU RASL12 (11751679_a_at) / Fold change /veh RASL12 (11751679_a_at) / RFU CDKN2B (11736163_a_at) / Fold change /veh CDKN2B (11736163_a_at) / RFU PRF1 (11729649_at) / Fold change /veh PRF1 (11729649_at) / RFU, ZNF638 /// ZNF638-IT1 / Fold change vs veh, ZNF638 /// ZNF638-IT1 / RFU, PANK3 / Fold change vs veh, PANK3 / RFU, SH3YL1 / Fold change vs veh, SH3YL1 / RFU, ZEB2 / Fold change vs veh, ZEB2 / RFU, NRIP1 / Fold change vs veh, NRIP1 / RFU, PTTG1IP / Fold change vs veh, PTTG1IP / RFU, CAPN2 / Fold change vs veh, CAPN2 / RFU, MED14 / Fold change vs veh, MED14 / RFU, SNORA58 / Fold change vs veh, SNORA58 / RFU, C1orf63 / Fold change vs veh, C1orf63 / RFU, LRRFIP1 / Fold change vs veh, LRRFIP1 / RFU, NDUFAF7 / Fold change vs veh, NDUFAF7 / RFU, SLC12A2 / Fold change vs veh, SLC12A2 / RFU, IBTK / Fold change vs veh, IBTK / RFU, ESF1 / Fold change vs veh, ESF1 / Fold change vs veh, TMEM50B / RFU, TAOK1 / Fold change vs veh, TAOK1 / RFU, ACBD3 / Fold change vs veh, ACBD3 / RFU, TMA16 / Fold change vs veh, TMA16 / RFU, RWDD3 / Fold change vs veh, RWDD3 / RFU, BCAT1 / Fold change vs veh, BCAT1 / RFU, EDEM3 / Fold change vs veh, EDEM3 / RFU, TMEM33 / Fold change vs veh, TMEM33 / RFU, WDR75 / Fold change vs veh, WDR75 / RFU, AHCTF1 / Fold change vs veh, AHCTF1 / RFU, TFRC / Fold change vs veh, TFRC / RFU, ZDHHC17 / Fold change vs veh, ZDHHC17 / RFU, NOM1 / Fold change vs veh, NOM1 / RFU, ARL8B / Fold change vs veh, ARL8B / RFU, ZBTB11 / Fold change vs veh, ZBTB11 / RFU, TAMM41 / Fold change vs veh, TAMM41 / RFU, KIAA1704 /// LOC100996395 / Fold change vs veh, KIAA1704 /// LOC100996395 / RFU, ING1 / Fold change vs veh, ING1 / RFU, TRMT61B / Fold change vs veh, TRMT61B / RFU, FUBP3 / Fold change vs veh, FUBP3 / RFU, TP53 / Fold change vs veh, TP53 / RFU, TNKS2 / Fold change vs veh, TNKS2 / RFU, ZFP14 / Fold change vs veh, ZFP14 / RFU, ACTR2 / Fold change vs veh, ACTR2 / RFU, PPP3R1 / Fold change vs veh, PPP3R1 / RFU, PIK3R1 / Fold change vs veh, PIK3R1 / RFU, HNRNPA1 / Fold change vs veh, HNRNPA1 / RFU, RNF170 / Fold change vs veh, RNF170 / RFU, ZNF28 / Fold change vs veh, ZNF28 / RFU, RNGTT / Fold change vs veh, RNGTT / RFU, OGT / Fold change vs veh, OGT / RFU, BRD1 / Fold change vs veh, BRD1 / RFU, MARS / Fold change vs veh, MARS / RFU, ZNF655 / Fold change vs veh, ZNF655 / RFU, FAHD1 / Fold change vs veh, FAHD1 / RFU, BDP1 / Fold change vs veh, BDP1 / RFU, LRRCC1 / Fold change vs veh, LRRCC1 / RFU, ARID1A / Fold change vs veh, ARID1A / RFU, ZNF146 / Fold change vs veh, ZNF146 / RFU, ZNF330 / Fold change vs veh, ZNF330 / RFU, GPN3 / Fold change vs veh, GPN3 / RFU, C9orf123 / Fold change vs veh, C9orf123 / RFU, N4BP2L2 / Fold change vs veh, N4BP2L2 / RFU, ARFIP1 / Fold change vs veh, ARFIP1 / RFU, FAM179B / Fold change vs veh, FAM179B / RFU, BCL10 / Fold change vs veh, BCL10 / RFU, UHRF1BP1L / Fold change vs veh, UHRF1BP1L / RFU, BET1 / Fold change vs veh, BET1 / RFU, CNOT2 / Fold change vs veh, CNOT2 / RFU, ZNF268 / Fold change vs veh, ZNF268 / Fold change vs veh, ZNF507 / RFU, DGCR2 / Fold change vs veh, DGCR2 / RFU, WDSUB1 / Fold change vs veh, WDSUB1 / Fold change vs veh, HSP90B1 /// MIR3652 / RFU, ADSS / Fold change vs veh, ADSS / RFU, GK / Fold change vs veh, GK / RFU, ZNF148 / Fold change vs veh, ZNF148 / RFU, TAF9 / Fold change vs veh, TAF9 / RFU, SLC1A5 / Fold change vs veh, SLC1A5 / RFU, SLMO2 / Fold change vs veh, SLMO2 / RFU, ABCC4 / Fold change vs veh, ABCC4 / RFU, LOC101060439 /// RAP1B / Fold change vs veh, LOC101060439 /// RAP1B / RFU, RFX7 / Fold change vs veh, RFX7 / RFU, GTPBP10 / Fold change vs veh, GTPBP10 / RFU, CNEP1R1 / Fold change vs veh, CNEP1R1 / RFU, BIVM-ERCC5 /// ERCC5 / Fold change vs veh, BIVM-ERCC5 /// ERCC5 / RFU, ILF3 / Fold change vs veh, ILF3 / RFU 11762660_at / Fold change /veh 11762660_at / RFU VCAN (11757783_s_at) / Fold change /veh VCAN (11757783_s_at) / RFU DDX43 (11728927_at) / Fold change /veh DDX43 (11728927_at) / RFU KRT8 (11758188_x_at) / Fold change /veh KRT8 (11758188_x_at) / RFU NKD1 (11759106_at) / Fold change /veh NKD1 (11759106_at) / RFU SRD5A1 (11742802_a_at) / Fold change /veh SRD5A1 (11742802_a_at) / RFU TPSAB1 /// TPSB2 (11721975_s_at) / Fold change /veh TPSAB1 /// TPSB2 (11721975_s_at) / RFU GSTM3 (11746129_a_at) / Fold change /veh GSTM3 (11746129_a_at) / RFU IL23R (11737362_x_at) / Fold change /veh IL23R (11737362_x_at) / RFU TMEM51 (11727254_a_at) / Fold change /veh TMEM51 (11727254_a_at) / RFU PIWIL2 (11732686_x_at) / Fold change /veh PIWIL2 (11732686_x_at) / RFU ORM1 (11744905_x_at) / Fold change /veh ORM1 (11744905_x_at) / RFU CCDC152 (11743942_at) / Fold change /veh CCDC152 (11743942_at) / RFU ECM1 (11717891_a_at) / Fold change /veh ECM1 (11717891_a_at) / RFU IL23R (11748794_a_at) / Fold change /veh IL23R (11748794_a_at) / RFU TNFAIP8L3 (11732012_x_at) / Fold change /veh TNFAIP8L3 (11732012_x_at) / RFU MBOAT4 (11741988_at) / Fold change /veh MBOAT4 (11741988_at) / RFU 11764193_at / Fold change /veh 11764193_at / RFU TMEM53 (11763286_at) / Fold change /veh TMEM53 (11763286_at) / RFU MAGEB2 (11727129_at) / Fold change /veh MAGEB2 (11727129_at) / RFU TMEM200A (11744735_a_at) / Fold change /veh TMEM200A (11744735_a_at) / RFU CCDC152 (11751479_a_at) / Fold change /veh CCDC152 (11751479_a_at) / RFU FAM211A (11726209_a_at) / Fold change /veh FAM211A (11726209_a_at) / RFU RGS16 (11746705_a_at) / Fold change /veh RGS16 (11746705_a_at) / RFU VCAN (11755009_s_at) / Fold change /veh VCAN (11755009_s_at) / RFU RHOB (11743442_s_at) / Fold change /veh RHOB (11743442_s_at) / RFU RGS16 (11720943_a_at) / Fold change /veh RGS16 (11720943_a_at) / RFU RGS16 (11720944_at) / Fold change /veh RGS16 (11720944_at) / RFU, VPS4B / Fold change vs veh, VPS4B / RFU, CREB1 / Fold change vs veh, CREB1 / RFU, DNAJC13 / Fold change vs veh, DNAJC13 / RFU, GNAQ / Fold change vs veh, GNAQ / RFU, CDK5R1 / Fold change vs veh, CDK5R1 / RFU, ZRANB3 / Fold change vs veh, ZRANB3 / RFU, CUL4A / Fold change vs veh, CUL4A / RFU, CCNY / Fold change vs veh, CCNY / RFU, UFL1 / Fold change vs veh, UFL1 / RFU, COG3 / Fold change vs veh, COG3 / RFU, DIAPH2 / Fold change vs veh, DIAPH2 / RFU, SKA2 / Fold change vs veh, SKA2 / RFU, AFF3 / Fold change vs veh, AFF3 / RFU, LMF1 / Fold change vs veh, LMF1 / RFU, IPO11 / Fold change vs veh, IPO11 / RFU, DFFB / Fold change vs veh, DFFB / RFU, FOXP1 / Fold change vs veh, FOXP1 / RFU, CARD8 / Fold change vs veh, CARD8 / RFU, STRN3 / Fold change vs veh, STRN3 / RFU, ADK / Fold change vs veh, ADK / RFU, RASSF2 / Fold change vs veh, RASSF2 / RFU, WIPF1 / Fold change vs veh, WIPF1 / RFU, LARP1B / Fold change vs veh, LARP1B / RFU, RASA1 / Fold change vs veh, RASA1 / RFU, RB1 / Fold change vs veh, RB1 / RFU, PPFIA1 / Fold change vs veh, PPFIA1 / RFU, MAT2A / Fold change vs veh, MAT2A / RFU, CCT5 / Fold change vs veh, CCT5 / RFU, WDR92 / Fold change vs veh, WDR92 / RFU, CUX1 / Fold change vs veh, CUX1 / RFU, TTC7A / Fold change vs veh, TTC7A / RFU, TMEM135 / Fold change vs veh, TMEM135 / RFU, DEPTOR / Fold change vs veh, DEPTOR / RFU, CPM / Fold change vs veh, CPM / RFU, DNAJB6 / Fold change vs veh, DNAJB6 / RFU, CACNA2D3 / Fold change vs veh, CACNA2D3 / RFU, DTX4 / Fold change vs veh, DTX4 / RFU, TFCP2 / Fold change vs veh, TFCP2 / RFU, GMCL1 /// GMCL1P1 / Fold change vs veh, GMCL1 /// GMCL1P1 / RFU, AEBP2 / Fold change vs veh, AEBP2 / RFU, SNHG1 /// SNORD22 /// SNORD25 /// SNORD26 /// SNORD27 /// SNORD28 /// SNORD29 /// SNORD31 / Fold change vs veh, SNHG1 /// SNORD22 /// SNORD25 /// SNORD26 /// SNORD27 /// SNORD28 /// SNORD29 /// SNORD31 / Fold change (Aza/veh), C12orf56 (ProbeSet 11735607_a_at) / Fold change (ACY-1035/veh), C12orf56 (ProbeSet 11735607_a_at) / Fold change (Aza/veh), FGFR1OP (ProbeSet 11751329_s_at) / Fold change (ACY-1035/veh), FGFR1OP (ProbeSet 11751329_s_at) / Fold change (Aza/veh), VPS36 (ProbeSet 11739960_a_at) / Fold change (ACY-1035/veh), VPS36 (ProbeSet 11739960_a_at) / RFU SYPL1 (11715823_x_at) / Fold change /veh SYPL1 (11715823_x_at) / RFU IGFBP7 (11715501_s_at) / Fold change /veh IGFBP7 (11715501_s_at) / RFU REEP3 (11722064_at) / Fold change /veh REEP3 (11722064_at) / RFU IGLL1 (11728026_x_at) / Fold change /veh IGLL1 (11728026_x_at): dose or concentration left out as unconfirmed
Conditions: ProbeSet 11747937_a_at; LIST D

Nc1ccc(-c2cccs2)cc1NC(=O)c1ccc2c(c1)cc(C1CC1)n2CCN1CCOCC1 [ACY-1035]
Fold change vs veh, DNAJB6: 0.86
